Data taken from patent publication US20080200544A1, “Oil agent and lubricant agent, moisturizer and external preparation composition containing the same” (priority 2007, published 2008).
Counter-ions that a name gives are not always drawn.

Tests used:
[1] = Viscosity, Brookfield viscometer DV-II+ (Spindle No. 2, 12 rpm, 25° C.); assay type: physicochemical; details: for Viscosity: 25° C.; for Feeling of use: class assigned from viscosity at 25° C.
Protocol: In this specification, “viscosity” refers to a value of viscosity measured using a Brookfield viscometer DV-II+ (Spindle No. 2, 12 rpm, 25° C.).
In these examples, viscosity was measured using a Brookfield viscometer DV-II+ (Spindle No. 2, 12 rpm, 25° C.).

[2] = Oil solubility evaluation in KAK99; details: in KAK99 (isononyl isononanoate)
[3] = Water solubility evaluation; details: in water

Row | Compound | Viscosity [1] [mPa · s] | Oil solubility [2] | Feeling of use [1] | Water solubility [3]
1 | CCOCCOCCOC(=O)CCC(=O)OCCOCCOCC [Example 1, dicarbitol succinate] | 12.5 | – | light | –
2 | CCOCCOCCOC(=O)CC(O)C(=O)OCCOCCOCC (stereo not drawn) [Example 2, dicarbitol malate] | 45 | Δ (Dissolved in KAK99 up to 5% by mass) | – | ◯ (Dissolved in water up to 10% by mass)
3 | CCOCCOCCOCCOC(=O)CCC(=O)OCCOCCOCCOCC [Example 5, di(triethylene glycol monoethyl ether) succinate] | 32.5 | Δ (Dissolved in KAK99 up to 5% by mass) | – | –
4 | CCOCCOC(=O)CCC(=O)OCCOCC [Example 6, di(monoethylene glycol monoethyl ether) succinate] | 10.0 | – | light | Δ (Dissolved in water up to 5% by mass)

Continued, in another order:

Row | Viscosity [1] [mPa · s] | Oil solubility [2] | Compound | Feeling of use [1] | Water solubility [3]
5 | 20 | – | CCOCCOCCOC(=O)CCCCC(=O)OCCOCCOCC [Example 3, dicarbitol adipate] | light | –
6 | 207 | – | CCOCCOCCOC(=O)C(O)C(O)C(=O)OCCOCCOCC (stereo not drawn) [Example 4, dicarbitol tartrate] | – | –
7 | 5 | – | dicarbitol isononanoate [compound 1, reference compound] | light | –
